Assay results taken from US10829478B2, “5-[3-[piperazin-1-yl]-3-oxo-propyl]-imidazolidine-2,4-dione derivatives as ADAMTS 4 and 5 inhibitors for treating e.g. osteoarthritis” (Galapagos NV, priority 2016, dated 2020).

Legend:
human ADAMTS-5 = human ADAMTS-5 (Homo sapiens (Human), UniProt Q9UNA0); assay: hADAMTS-5 TBIS-1 cleavage assay, Protocol 3; format: biochemical; conditions: 90 min at 37° C., read-out: hADAMTS-5 potency IC50
Procedure: The reaction is initiated by adding to the assay plate TBIS-1 (10 μL, 4.5 μM, Anaspec) in the same buffer.
Finally, the fluorescence is read on the Envision (Perkin Elmer) after an incubation of 90 min at 37° C. (Excitation 485 nm, emission 530).

human MMP13 = human MMP13 (Homo sapiens (Human), UniProt P45452); assay: hMMP13 assay, Protocol 1 (390 MMP FRET Substrate I, Chemicon enzyme); format: biochemical; conditions: Protocol 1, human MMP13 (Chemicon), read-out: hMMP-13 potency IC50
Procedure: Human MMP13 is preactivated by incubated the enzyme in the same buffer complemented with 1 mM freshly prepared p-Aminophenylmercuric acetate (AMPA) for 1 h at 37° C.

human ADAMTS6 = human ADAMTS6 (Homo sapiens (Human), UniProt Q9UKP5); assay: hADAMTS-6 fluorescent based protease assay (520 MMP FRET substrate XII); format: biochemical; conditions: 37° C. for 2 h; read-out: hADAMTS-6 potency IC50
In short: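 ADAMTS6 (0.73 nM final) in 25 mM Tris pH 8.0, 0.05% CHAPS, 2.5 mM CaCl2 with compound dilution series (top 20 μM, 1/5 steps). Reaction started with 520 MMP FRET Substrate XII, incubated 2 h at 37 °C. Substrate cleavage read by fluorescence ex485/em530; IC50 determined.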

rnADAMTS-5 (1-564-6H) = rnADAMTS-5 (1-564-6H) (Rattus norvegicus (Rat), UniProt Q6TY19); assay: Rat ADAMTS-5 TBIS-1 cleavage assay; format: biochemical; conditions: 120 min at 37° C.; read-out: Rat ADAMTS-5 potency IC50
human ADAMTS4 = human ADAMTS4 (Homo sapiens (Human), UniProt O75173); assay: hADAMTS-4 TBIS-1 cleavage assay, Protocol 2; format: biochemical; conditions: Protocol 2; 180 min at 37° C.; read-out: ADAMTS4 potency IC50
human TACE = human TACE (Homo sapiens (Human), UniProt P78536); assay: biochemical
Sequence of human TACE (P78536 215-671): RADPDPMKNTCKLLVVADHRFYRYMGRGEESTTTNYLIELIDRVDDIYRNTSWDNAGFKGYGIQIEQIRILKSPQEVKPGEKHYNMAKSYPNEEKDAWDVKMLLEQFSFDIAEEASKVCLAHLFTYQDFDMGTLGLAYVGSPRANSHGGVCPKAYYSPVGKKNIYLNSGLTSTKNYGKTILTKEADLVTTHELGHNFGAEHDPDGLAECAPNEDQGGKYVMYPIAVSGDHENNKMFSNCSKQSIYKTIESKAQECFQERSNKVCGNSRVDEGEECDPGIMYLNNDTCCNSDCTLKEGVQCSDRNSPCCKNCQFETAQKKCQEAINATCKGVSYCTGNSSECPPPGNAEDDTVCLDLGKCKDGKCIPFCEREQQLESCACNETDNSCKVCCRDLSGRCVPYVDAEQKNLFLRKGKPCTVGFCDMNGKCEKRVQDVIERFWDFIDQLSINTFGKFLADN
Procedure: Finally, the fluorescence is read on the Envision (Perkin Elmer) after an incubation of 75 min at room temperature (Excitation 485 nm, Emission 530).

Sequence of rnADAMTS-5 (1-564-6H) (Q6TY19 entry or part of it): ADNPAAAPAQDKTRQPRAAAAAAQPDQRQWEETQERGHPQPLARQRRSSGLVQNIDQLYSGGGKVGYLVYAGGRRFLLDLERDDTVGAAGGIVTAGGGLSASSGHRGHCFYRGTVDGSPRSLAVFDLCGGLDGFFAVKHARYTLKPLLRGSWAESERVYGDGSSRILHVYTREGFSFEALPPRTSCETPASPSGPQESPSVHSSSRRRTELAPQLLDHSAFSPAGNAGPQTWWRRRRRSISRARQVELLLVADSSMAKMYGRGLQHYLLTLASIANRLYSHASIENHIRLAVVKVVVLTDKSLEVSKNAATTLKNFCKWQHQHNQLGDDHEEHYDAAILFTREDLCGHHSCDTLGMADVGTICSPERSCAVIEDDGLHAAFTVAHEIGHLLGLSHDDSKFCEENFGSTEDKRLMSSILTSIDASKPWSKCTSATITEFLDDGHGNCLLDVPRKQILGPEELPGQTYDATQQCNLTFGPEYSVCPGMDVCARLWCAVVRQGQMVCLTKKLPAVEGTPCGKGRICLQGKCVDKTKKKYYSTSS
Sequence of human ADAMTS-5 (Q9UNA0 262-930): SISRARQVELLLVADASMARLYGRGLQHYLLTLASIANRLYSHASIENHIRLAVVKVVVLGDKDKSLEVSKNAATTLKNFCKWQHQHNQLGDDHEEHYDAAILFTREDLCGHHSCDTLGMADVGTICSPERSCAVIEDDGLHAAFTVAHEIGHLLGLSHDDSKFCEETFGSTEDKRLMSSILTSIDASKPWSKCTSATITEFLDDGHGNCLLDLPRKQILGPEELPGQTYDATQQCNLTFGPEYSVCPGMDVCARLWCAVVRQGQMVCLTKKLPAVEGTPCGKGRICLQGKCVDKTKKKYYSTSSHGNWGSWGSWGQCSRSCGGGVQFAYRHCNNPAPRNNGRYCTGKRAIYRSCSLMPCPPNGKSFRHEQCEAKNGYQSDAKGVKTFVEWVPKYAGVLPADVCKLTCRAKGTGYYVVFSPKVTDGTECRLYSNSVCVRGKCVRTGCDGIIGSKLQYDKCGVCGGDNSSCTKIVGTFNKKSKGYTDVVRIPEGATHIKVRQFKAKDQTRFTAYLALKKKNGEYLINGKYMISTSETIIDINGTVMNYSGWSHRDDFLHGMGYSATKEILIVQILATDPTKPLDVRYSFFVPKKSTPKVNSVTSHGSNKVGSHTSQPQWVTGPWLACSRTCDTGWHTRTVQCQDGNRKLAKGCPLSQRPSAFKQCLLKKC
Sequence of human ADAMTS6 (Q9UKP5 other isoform, or with tags, fused parts or gaps): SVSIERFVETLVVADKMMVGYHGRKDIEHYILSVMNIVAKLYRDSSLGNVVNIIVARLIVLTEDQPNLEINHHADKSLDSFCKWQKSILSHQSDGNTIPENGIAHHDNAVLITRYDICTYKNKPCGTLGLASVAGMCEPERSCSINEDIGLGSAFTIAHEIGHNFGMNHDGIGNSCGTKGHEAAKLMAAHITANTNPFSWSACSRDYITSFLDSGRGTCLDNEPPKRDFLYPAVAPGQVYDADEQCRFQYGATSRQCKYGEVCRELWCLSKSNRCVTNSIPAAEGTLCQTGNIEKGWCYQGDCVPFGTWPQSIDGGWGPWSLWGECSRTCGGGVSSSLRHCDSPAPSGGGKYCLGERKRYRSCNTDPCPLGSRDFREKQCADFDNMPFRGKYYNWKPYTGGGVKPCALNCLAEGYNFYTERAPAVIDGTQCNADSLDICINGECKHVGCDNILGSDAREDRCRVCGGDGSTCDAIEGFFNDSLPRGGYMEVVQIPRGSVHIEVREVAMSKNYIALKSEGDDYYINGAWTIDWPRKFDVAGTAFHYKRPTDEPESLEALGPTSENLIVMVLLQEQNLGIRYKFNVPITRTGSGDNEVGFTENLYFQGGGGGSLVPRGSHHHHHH
Sequence of human ADAMTS4 (O75173 213-837): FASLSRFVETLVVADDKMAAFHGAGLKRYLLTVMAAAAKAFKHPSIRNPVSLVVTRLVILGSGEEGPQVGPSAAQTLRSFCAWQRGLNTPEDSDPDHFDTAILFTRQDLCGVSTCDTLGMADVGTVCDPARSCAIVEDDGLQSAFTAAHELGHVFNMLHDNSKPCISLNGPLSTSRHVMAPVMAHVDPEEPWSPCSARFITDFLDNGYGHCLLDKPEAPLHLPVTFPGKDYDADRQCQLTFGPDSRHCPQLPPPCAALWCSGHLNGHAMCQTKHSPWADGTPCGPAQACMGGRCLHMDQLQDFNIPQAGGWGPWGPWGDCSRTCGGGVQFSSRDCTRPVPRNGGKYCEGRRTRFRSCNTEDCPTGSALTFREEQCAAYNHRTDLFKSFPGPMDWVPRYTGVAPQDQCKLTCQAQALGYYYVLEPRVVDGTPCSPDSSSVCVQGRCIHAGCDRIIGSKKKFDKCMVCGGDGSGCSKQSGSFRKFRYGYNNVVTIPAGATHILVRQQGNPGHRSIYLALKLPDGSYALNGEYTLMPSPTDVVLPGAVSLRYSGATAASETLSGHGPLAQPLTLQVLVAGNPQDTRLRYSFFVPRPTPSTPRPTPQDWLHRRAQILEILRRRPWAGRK

Row | SMILES | IC50 (human ADAMTS-5) | IC50 (human MMP13) | IC50 (human ADAMTS6) | IC50 (rnADAMTS-5 (1-564-6H)) | IC50 (human ADAMTS4) | IC50 (human TACE)
1 | COc1cc(N2CCN(C(=O)CC[C@H]3NC(=O)NC3=O)C[C@@H]2C)cc(F)c1F [Cpd 129, (5R)-5-[3-[(3S)-4-(3,4-difluoro-5-methoxy-phenyl)-3-methyl-piperazin-1-yl]-3-oxo-propyl]imidazolidine-2,4-dione] | > 100 nM | > 100 nM | 0.001 to 25 nM | > 100 nM | > 100 nM | > 100 nM
2 | COc1cc(OC)cc(N2CCN(C(=O)CC[C@H]3NC(=O)NC3=O)C[C@@H]2C)c1 [Cpd 132, (5R)-5-[3-[(3 S)-4-(3,5-dimethoxyphenyl)-3-methyl-piperazin-1-yl]-3-oxo-propyl]imidazolidine-2,4-dione] | > 100 nM | > 100 nM | 25 to 50 nM | > 100 nM | > 100 nM | > 100 nM
3 | COc1cc(N2CCN(C(=O)CC[C@H]3NC(=O)NC3=O)C[C@@H]2C)ccc1Cl [Cpd 133, (5R)-5-[3-[(3 S)-4-(4-chloro-3-methoxy-phenyl)-3-methyl-piperazin-1-yl]-3-oxo-propyl]imidazolidine-2,4-dione] | > 100 nM | > 100 nM | 0.001 to 25 nM | > 100 nM | > 100 nM | > 100 nM
4 | COc1cc(N2CCN(C(=O)CC[C@H]3NC(=O)NC3=O)CC2)cc(OC)c1Cl [Cpd 135, (5R)-5-[3-[4-(4-chloro-3,5-dimethoxy-phenyl)piperazin-1-yl]-3-oxo-propyl]imidazolidine-2,4-dione] | > 100 nM | > 100 nM | 0.001 to 25 nM | > 100 nM | > 100 nM | > 100 nM
5 | COc1cc(N2CCN(C(=O)CC[C@H]3NC(=O)NC3=O)CC2)c(C)cc1Cl [Cpd 138, (5R)-5-[3-[4-(4-chloro-5-methoxy-2-methyl-phenyl)piperazin-1-yl]-3-oxo-propyl]imidazolidine-2,4-dione] | > 100 nM | > 100 nM | > 100 nM | > 100 nM | > 100 nM | > 100 nM
6 | COc1cc(N2CCN(C(=O)CC[C@H]3NC(=O)NC3=O)C[C@@H]2C)cc(OC)c1Cl [Cpd 139, (5R)-5-[3-[(3 S)-4-(4-chloro-3,5-dimethoxy-phenyl)-3-methyl-piperazin-1-yl]-3-oxo-propyl]imidazolidine-2,4-dione] | > 100 nM | > 100 nM | 0.001 to 25 nM | 50 to 100 nM | > 100 nM | > 100 nM
7 | COc1cc(N2CCN(C(=O)CC[C@H]3NC(=O)NC3=O)C[C@@H]2C)c(C)cc1Cl [Cpd 142, (5R)-5-[3-[(3S)-4-(4-chloro-5-methoxy-2-methyl-phenyl)-3-methyl-piperazin-1-yl]-3-oxo-propyl]imidazolidine-2,4-dione] | > 100 nM | > 100 nM | 50 to 100 nM | > 100 nM | > 100 nM | > 100 nM

Further lines, results first:

Row | IC50 (human ADAMTS-5) | IC50 (human MMP13) | IC50 (human ADAMTS6) | IC50 (rnADAMTS-5 (1-564-6H)) | IC50 (human ADAMTS4) | IC50 (human TACE) | SMILES
8 | > 100 nM | > 100 nM | 25 to 50 nM | > 100 nM | > 100 nM | > 100 nM | COc1cc(N2CCN(C(=O)CCC3(C)NC(=O)NC3=O)CC2)c(C)cc1Cl (stereo not drawn) [Cpd 34, 5-[3-[4-(4-chloro-5-methoxy-2-methyl-phenyl)piperazin-1-yl]-3-oxo-propyl]-5-methyl-imidazolidine-2,4-dione]
9 | > 100 nM | > 100 nM | 25 to 50 nM | > 100 nM | > 100 nM | > 100 nM | COc1cc(N2CCN(C(=O)CCC3(C)NC(=O)NC3=O)C[C@@H]2C)c(C)cc1Cl (stereo partly drawn) [Cpd 36, 5-[3-[(3 S)-4-(4-chloro-5-methoxy-2-methyl-phenyl)-3-methyl-piperazin-1-yl]-3-oxo-propyl]-5-methyl-imidazolidine-2,4-dione]
10 | > 100 nM | > 100 nM | 0.001 to 25 nM | 50 to 100 nM | > 100 nM | > 100 nM | COc1cc(N2CCN(C(=O)CCC3(C)NC(=O)NC3=O)CC2)cc(F)c1Cl (stereo not drawn) [Cpd 38, 5-[3-[4-(4-chloro-3-fluoro-5-methoxy-phenyl)piperazin-1-yl]-3-oxo-propyl]-5-methyl-imidazolidine-2,4-dione]
11 | 50 to 100 nM | > 100 nM | 0.001 to 25 nM | 50 to 100 nM | > 100 nM | > 100 nM | COc1cc(N2CCN(C(=O)CCC3(C)NC(=O)NC3=O)C[C@@H]2C)cc(F)c1Cl (stereo partly drawn) [Cpd 39, 5-[3-[(3S)-4-(4-chloro-3-fluoro-5-methoxy-phenyl)-3-methyl-piperazin-1-yl]-3-oxo-propyl]-5-methyl-imidazolidine-2,4-dione]
